Data: patent EP0555116B1, “Compositions based on antiseptics and their applications” (HUTCHINSON, priority 1992, dated 1993)

Experiments:
[1] = test system: Candida albicans ATCC 1031; test: Growth inhibition test (DGHM, Essai 2, Tables A-C), 72 h at 37°C; non/A/B/C = without or with inactivating substances A, B, C; format: cell-based
Method: Un autre essai a été réalisé à partir des solutions suivantes : • 100 ml d'une solution à 0,1 % de digluconate de chlorhexidine (pH 6) et • 100 ml d'une solution à 0,1 % de Bardac 22®. […]
(§1) Les tests ont été réalisés conformément au protocole décrit dans le Chapitre I/2.1 et 2.2 de Richtlinien für die Prüfung und Bewertung chemischer Desinfektionsverfahren der DGHM, Stand 1.1., 1981).
Les Tableaux A, B et C illustrent respectivement l'activité bactéricide et fongicide d'une solution aqueuse à 0,1 % de digluconate de chlorhexidine, d'une solution aqueuse à 0,1 % de Bardac 22® et d'un mélange à part égale des deux composés. Les protocoles dont ces Tableaux illustrent les résultats comprennent une incubation de 72 heures à 37°C et l'utilisation, comme témoins, des substances inactivantes suivantes : A : Tween® 80 3 % + lécithine 0,3 % + cystéine 0,1 %; B : Tween® 80 3 % + saponine 3 % + cystéine 0,1 % + histidine 0,1 %; C : Tween® 80 3 % + lécithine 0,3 % + histidine 0,1 % + thiosulfate de sodium 0,5 %.
Dans ces Tableaux, le signe "+" indique une croissance et le signe "-" l'absence de croissance.

S. aureus ATCC 6538 = test: Disinfection time test (Essai 2, Tables D-F), reaction at 22°, subcultures 72 h at 37°C; format: cell-based, Staphylococcus aureus
Method: (§2) Un autre essai a été réalisé à partir des solutions suivantes : • 100 ml d'une solution à 0,1 % de digluconate de chlorhexidine (pH 6) et • 100 ml d'une solution à 0,1 % de Bardac 22®.
as §1
(§3) Les tests dont les résultats sont illustrés aux Tableaux D, E et F ont été réalisés à une température de réaction de 22° avec une incubation des sous-cultures 72 heures à 37°C avec comme substances inactivantes : Tween® 80 3 % + saponine 3 % + cystéine 0,1 % + histidine 0,1 %; ces Tableaux illustrent respectivement l'activité bactéricide et fongicide d'une solution aqueuse à 0,1 % de digluconate de chlorhexidine, d'une solution aqueuse à 0,1 % de Bardac 22® et d'un mélange à part égale des deux composés et montrent l'action des antiseptiques précités, en fonction du temps de contact, et font apparaître la même synergie d'action de l'association que ci-dessus, dans la mesure où l'association des deux composés permet de diminuer significativement leur concentration, pour l'obtention d'un même effet. TABLEAU D

[2] = test system: Candida albicans ATCC 1031; test: as above; format: cell-based
Method: as §2, §1, §3

## CCCCCCCCCC[N+](C)(C)CCCCCCCCCC [Bardac®, chlorure de didécyldiméthylammonium]
[1]; Conc. 0,1 % (vol/vol), A
  croissance: +
[1]; Conc. 0,1 % (vol/vol), B
  croissance: +
[1]; Conc. 0,1 % (vol/vol), C
  croissance: +
[1]; Conc. 0,1 % (vol/vol), non
  croissance: -
[1]; Conc. 0,05 % (vol/vol), A
  croissance: +
[1]; Conc. 0,5 % (vol/vol), A
  croissance: +
[1]; Conc. 0,05 % (vol/vol), B
  croissance: +
[1]; Conc. 0,5 % (vol/vol), B
  croissance: +
[1]; Conc. 0,05 % (vol/vol), C
  croissance: +
[1]; Conc. 0,5 % (vol/vol), C
  croissance: +
[1]; Conc. 0,05 % (vol/vol), non
  croissance: +
[1]; Conc. 0,5 % (vol/vol), non
  croissance: -
[1]; Conc. 1,0 % (vol/vol), A
  croissance: +
[1]; Conc. 1,0 % (vol/vol), B
  croissance: +
[1]; Conc. 1,0 % (vol/vol), C
  croissance: +
[1]; Conc. 1,0 % (vol/vol), non
  croissance: -
[1]; Conc. 0,00625 % (vol/vol), A
  croissance: +
[1]; Conc. 0,00625 % (vol/vol), B
  croissance: +
[1]; Conc. 0,00625 % (vol/vol), C
  croissance: +
[1]; Conc. 0,00625 % (vol/vol), non
  croissance: +
[1]; Conc. 0,0125 % (vol/vol), A
  croissance: +
[1]; Conc. 0,0125 % (vol/vol), B
  croissance: +
[1]; Conc. 0,0125 % (vol/vol), C
  croissance: +
[1]; Conc. 0,0125 % (vol/vol), non
  croissance: +
[1]; Conc. 0,025 % (vol/vol), A
  croissance: +
[1]; Conc. 0,025 % (vol/vol), B
  croissance: +
[1]; Conc. 0,025 % (vol/vol), C
  croissance: +
[1]; Conc. 0,025 % (vol/vol), non
  croissance: +
[1]; antiseptique seul
  concentration en substance active inhibant la croissance: 0,0001%
S. aureus ATCC 6538; Conc. 0,1 % (vol/vol), 1 min
  croissance: +
S. aureus ATCC 6538; Conc. 0,1 % (vol/vol), 3 min
  croissance: +
S. aureus ATCC 6538; Conc. 0,1 % (vol/vol), 5 min
  croissance: +
S. aureus ATCC 6538; Conc. 0,1 % (vol/vol), 15 min
  croissance: +
S. aureus ATCC 6538; Conc. 0,1 % (vol/vol), 30 min
  croissance: +
S. aureus ATCC 6538; Conc. 0,1 % (vol/vol), 60 min
  croissance: +
S. aureus ATCC 6538; Conc. 0,05 % (vol/vol), 1 min
  croissance: +
S. aureus ATCC 6538; Conc. 0,5 % (vol/vol), 1 min
  croissance: +
S. aureus ATCC 6538; Conc. 0,05 % (vol/vol), 3 min
  croissance: +
S. aureus ATCC 6538; Conc. 0,5 % (vol/vol), 3 min
  croissance: +
S. aureus ATCC 6538; Conc. 0,05 % (vol/vol), 5 min
  croissance: +
S. aureus ATCC 6538; Conc. 0,5 % (vol/vol), 5 min
  croissance: +
S. aureus ATCC 6538; Conc. 0,05 % (vol/vol), 15 min
  croissance: +
S. aureus ATCC 6538; Conc. 0,5 % (vol/vol), 15 min
  croissance: +
S. aureus ATCC 6538; Conc. 0,05 % (vol/vol), 30 min
  croissance: +
S. aureus ATCC 6538; Conc. 0,5 % (vol/vol), 30 min
  croissance: +
S. aureus ATCC 6538; Conc. 0,05 % (vol/vol), 60 min
  croissance: +
S. aureus ATCC 6538; Conc. 0,5 % (vol/vol), 60 min
  croissance: +
S. aureus ATCC 6538; Conc. 1 % (vol/vol), 1 min
  croissance: +
S. aureus ATCC 6538; Conc. 1 % (vol/vol), 3 min
  croissance: +
S. aureus ATCC 6538; Conc. 1 % (vol/vol), 5 min
  croissance: +
S. aureus ATCC 6538; Conc. 1 % (vol/vol), 15 min
  croissance: +
S. aureus ATCC 6538; Conc. 1 % (vol/vol), 30 min
  croissance: -
S. aureus ATCC 6538; Conc. 1 % (vol/vol), 60 min
  croissance: -
S. aureus ATCC 6538; Conc. 5 % (vol/vol), 1 min
  croissance: +
S. aureus ATCC 6538; Conc. 5 % (vol/vol), 3 min
  croissance: +
S. aureus ATCC 6538; Conc. 5 % (vol/vol), 5 min
  croissance: +
S. aureus ATCC 6538; Conc. 5 % (vol/vol), 15 min
  croissance: -
S. aureus ATCC 6538; Conc. 5 % (vol/vol), 30 min
  croissance: -
S. aureus ATCC 6538; Conc. 5 % (vol/vol), 60 min
  croissance: -
S. aureus ATCC 6538; Conc. 10 % (vol/vol), 1 min
  croissance: +
S. aureus ATCC 6538; Conc. 10 % (vol/vol), 3 min
  croissance: -
S. aureus ATCC 6538; Conc. 10 % (vol/vol), 5 min
  croissance: -
S. aureus ATCC 6538; Conc. 10 % (vol/vol), 15 min
  croissance: -
S. aureus ATCC 6538; Conc. 10 % (vol/vol), 30 min
  croissance: -
S. aureus ATCC 6538; Conc. 10 % (vol/vol), 60 min
  croissance: -
S. aureus ATCC 6538; Conc. 25 % (vol/vol), 1 min
  croissance: +
S. aureus ATCC 6538; Conc. 25 % (vol/vol), 3 min
  croissance: -
S. aureus ATCC 6538; Conc. 25 % (vol/vol), 5 min
  croissance: -
S. aureus ATCC 6538; Conc. 25 % (vol/vol), 15 min
  croissance: -
S. aureus ATCC 6538; Conc. 25 % (vol/vol), 30 min
  croissance: -
S. aureus ATCC 6538; Conc. 25 % (vol/vol), 60 min
  croissance: -
[2]; Conc. 0,1 % (vol/vol), 1 min
  croissance: +
[2]; Conc. 0,1 % (vol/vol), 3 min
  croissance: +
[2]; Conc. 0,1 % (vol/vol), 5 min
  croissance: +
[2]; Conc. 0,1 % (vol/vol), 15 min
  croissance: +
[2]; Conc. 0,1 % (vol/vol), 30 min
  croissance: +
[2]; Conc. 0,1 % (vol/vol), 60 min
  croissance: +
[2]; Conc. 0,05 % (vol/vol), 1 min
  croissance: +
[2]; Conc. 0,5 % (vol/vol), 1 min
  croissance: +
[2]; Conc. 0,05 % (vol/vol), 3 min
  croissance: +
[2]; Conc. 0,5 % (vol/vol), 3 min
  croissance: +
[2]; Conc. 0,05 % (vol/vol), 5 min
  croissance: +
[2]; Conc. 0,5 % (vol/vol), 5 min
  croissance: +
[2]; Conc. 0,05 % (vol/vol), 15 min
  croissance: +
[2]; Conc. 0,5 % (vol/vol), 15 min
  croissance: +
[2]; Conc. 0,05 % (vol/vol), 30 min
  croissance: +
[2]; Conc. 0,5 % (vol/vol), 30 min
  croissance: +
[2]; Conc. 0,05 % (vol/vol), 60 min
  croissance: +
[2]; Conc. 0,5 % (vol/vol), 60 min
  croissance: +
[2]; Conc. 1 % (vol/vol), 1 min
  croissance: +
[2]; Conc. 1 % (vol/vol), 3 min
  croissance: +
[2]; Conc. 1 % (vol/vol), 5 min
  croissance: +
[2]; Conc. 1 % (vol/vol), 15 min
  croissance: +
[2]; Conc. 1 % (vol/vol), 30 min
  croissance: -
[2]; Conc. 1 % (vol/vol), 60 min
  croissance: -
[2]; Conc. 5 % (vol/vol), 1 min
  croissance: +
[2]; Conc. 5 % (vol/vol), 3 min
  croissance: +
[2]; Conc. 5 % (vol/vol), 5 min
  croissance: -
[2]; Conc. 5 % (vol/vol), 15 min
  croissance: -
[2]; Conc. 5 % (vol/vol), 30 min
  croissance: -
[2]; Conc. 5 % (vol/vol), 60 min
  croissance: -
[2]; Conc. 10 % (vol/vol), 1 min
  croissance: -
[2]; Conc. 10 % (vol/vol), 3 min
  croissance: -
[2]; Conc. 10 % (vol/vol), 5 min
  croissance: -
[2]; Conc. 10 % (vol/vol), 15 min
  croissance: -
[2]; Conc. 10 % (vol/vol), 30 min
  croissance: -
[2]; Conc. 10 % (vol/vol), 60 min
  croissance: -
[2]; Conc. 25 % (vol/vol), 1 min
  croissance: -
[2]; Conc. 25 % (vol/vol), 3 min
  croissance: -
[2]; Conc. 25 % (vol/vol), 5 min
  croissance: -
[2]; Conc. 25 % (vol/vol), 15 min
  croissance: -
[2]; Conc. 25 % (vol/vol), 30 min
  croissance: -
[2]; Conc. 25 % (vol/vol), 60 min
  croissance: -
